Values quoted from earlier work in patent US8557836B2 (priority 2008, dated 2013).

Test system: M2 ion channel with mutations at M2 residues 27, 30, 31, and 34
Details: mutations at M2 residues 27, 30, 31, and 34 in the M2 transmembrane domain; cited from earlier work

C1CCC2(CC1)CCN(C1=NCCN1)CC2 [BL-1743, 3-(4,5-dihydro-1H-imidazol-2-yl)-3-azaspiro[5,5]undecane hydroiodide, reference compound]
resistance to BL-1743 induced by amantadine resistance mutations: complete
